# Measured values from patent publication US20250144036A1, “COMPOUNDS AND COMPOSITIONS FOR DELIVERY OF THERAPEUTIC AGENTS” (ModernaTX, Inc., priority 2021, published 2025).
# Tests used:
# endothelial cells [1] = assay: Expression of mOX40L in endothelial cells following intravenous administration of loaded LNPs (flow cytometry of lung cells); assay type: in vivo, mice (Ail4); settings: ionizable lipid/PEG lipid VI-4/PEG-DMG, 30 mol % cationic lipid or none, i.v., 24 h after dose
# Description: (§1) Reagents: Digestion Media: 3 mg/mL collagenase 1, 0.1 mg/mL DNase I, Dulbecco's Modified Eagle Medium (DMEM); Wash solution: Dulbecco's phosphate-buffered saline (DPBS)+0.5% Bovine Serum Albumin (BSA); FACS Buffer: Flow Cytometry Staining Buffer (eBioscience™, ThermoFisher Scientific).
# (§2) • CD31: General Endothelial Marker; • CD45: Leukocyte Common Marker; • mOX40L: Transmembrane Reporter; • tdTomato: Fluorescence Protein Reporter from Cre-mediated recombination in Ail4 mice.
# (§3) Six-week-old female mice (Ail4) were aged in-house to approximately 7-8 weeks of age. With an n=5 per group, Cre mRNA (i.e., mRNA leading to expression of tdTomato) formulated LNPs were intravenously dosed via the lateral tail vein 8 days before harvest. […] Collected data was analyzed using flow cytometry analysis software (FlowJo™).
# (§4) To assess the delivery of a therapeutic agent comprised in loaded LNPs of the disclosure to endothelial cells, the expression of Cre and mOX40L mRNA encapsulated in loaded LNPs of the disclosure was measured in endothelial cells following administration of the loaded LNPs to Ail4 mice as described in Example 3. […] The expression was evaluated in LNPs comprising 30 mol % of a cationic lipid of Formula (I) and in loaded LNPs not comprising the cationic of Formula (I) (i.e., LNPs not comprising a cationic lipid, or LNPs comprising dioleoyl-3-trimethylammonium propane (DOTAP)).
# endothelial cells [2] = assay: Expression of tdTomato (Cre mRNA) in endothelial cells following intravenous administration of loaded LNPs (flow cytometry of lung cells); assay type: in vivo, mice (Ail4); settings: ionizable lipid/PEG lipid VI-4/PEG-DMG, 30 mol % cationic lipid or none, i.v., 8 days before harvest
# Description: as §1, §2, §3, §4
structure (smiles),measurement,setting,value
"CCCCCCCC/C=C\CCCCCCCC(=O)OCC(C[N+](C)(C)C)OC(=O)CCCCCCC/C=C\CCCCCCCC (centres unmarked) [DOTAP, dioleoyl-3-trimethylammonium propane]",% Endothelial cells Average,endothelial cells [1],0%
same,% Endothelial cells Average,endothelial cells [2],0%
